Reference: publication PMC10657467, “Mechanically-primed voltage-gated proton channels from angiosperm plants” (Nature Communications, 2023)

Assays:
Format in all cases: cell-based
[1] = target: T1, SmHv1 (Selaginella moellendorffii, UniProt D8SZW5); assay: inside-out patch-clamp of proton currents
T1 construct: gene SELMODRAFT_128853; full-length channel (EFJ10096.1, 242 a.a.) expressed in Xenopus oocytes, after mechanical stimulus
T1 sequence (D8SZW5 1-242): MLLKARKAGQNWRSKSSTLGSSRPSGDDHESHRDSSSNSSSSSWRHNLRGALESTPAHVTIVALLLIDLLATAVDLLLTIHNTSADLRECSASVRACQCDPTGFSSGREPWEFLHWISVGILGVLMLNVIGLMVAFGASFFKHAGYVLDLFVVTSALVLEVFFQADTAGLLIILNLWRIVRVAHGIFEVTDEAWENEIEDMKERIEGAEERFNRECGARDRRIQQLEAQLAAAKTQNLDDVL

[2] = target: T2, AtHv1 (Arabidopsis thaliana, UniProt Q9SGX2); assay: inside-out patch-clamp of proton currents
T2 construct: gene At1g10800; full-length channel (NP_001321473.1, 236 a.a.) expressed in Xenopus oocytes, after mechanical stimulus
T2 sequence (Q9SGX2 1-236): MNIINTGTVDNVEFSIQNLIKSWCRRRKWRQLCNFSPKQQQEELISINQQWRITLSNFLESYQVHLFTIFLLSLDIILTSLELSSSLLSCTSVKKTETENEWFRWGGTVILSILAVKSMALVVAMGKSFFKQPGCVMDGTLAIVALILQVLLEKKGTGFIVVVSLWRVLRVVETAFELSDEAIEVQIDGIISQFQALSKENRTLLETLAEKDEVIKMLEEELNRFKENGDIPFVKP

[3] = target: T3, PsHv1 (Picea sitchensis, UniProt B8LLA1); assay: inside-out patch-clamp of proton currents, Hill fit
T3 construct: full-length channel (ABR16431.1, 260 a.a.) expressed in Xenopus oocytes
T3 sequence (B8LLA1 1-260): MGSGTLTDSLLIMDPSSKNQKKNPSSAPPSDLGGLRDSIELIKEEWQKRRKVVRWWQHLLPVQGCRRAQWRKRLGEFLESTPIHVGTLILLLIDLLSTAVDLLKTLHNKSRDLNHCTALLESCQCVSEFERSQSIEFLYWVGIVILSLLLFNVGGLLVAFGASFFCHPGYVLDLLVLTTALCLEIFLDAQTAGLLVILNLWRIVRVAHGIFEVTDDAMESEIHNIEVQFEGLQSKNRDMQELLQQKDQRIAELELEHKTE

SMILES | inside-out patch-clamp of proton currents [1] | inside-out patch-clamp of proton currents [2] | IC50 [3]
N=C(N)Nc1nc2ccccc2[nH]1 [2GBI, 2-guanidinobenzimidazole] | Despite some small differences in the extent of inhibition by 2GBI, AtHv1, SmHv1, and PsHv1 shared a low sensitivity | Despite some small differences in the extent of inhibition by 2GBI, AtHv1, SmHv1, and PsHv1 shared a low sensitivity | 372 ± 28 µM
N=C(N)Nc1nc2ccc(Cl)cc2[nH]1 [ClGBI, 5-chloro-2-guanidinobenzimidazole] | we tested the effects of 2GBI and ClGBI on AtHv1- and SmHv1-mediated currents post-mechanical stimulation | we tested the effects of 2GBI and ClGBI on AtHv1- and SmHv1-mediated currents post-mechanical stimulation | 39 ± 8 µM
